Assay results reported in patent US20180099931A1 (AbbVie S.à.r.l., priority 2016, published 2018).
pEC50: −log10 of the molar value. Like-named read-outs stand apart in the source and are kept apart here.

Biological target: T1, F508delCFTR (Homo sapiens, UniProt P13569, DEL508-508)
T1 construct: expressed in transfected cells; host or cells: CFBE41o- human lung-derived epithelial cells (CFBE4lo-F508delCFTR-HRP), doxycycline-inducible
Assay: Cell Surface Expression-Horse Radish Peroxidase (CSE-HRP) Assay;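 as to Maximum % activity (with co-corrector): co-corrector and positive control are both the same reference corrector at 2 µM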;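 as to Maximum % activity (without co-corrector): percent of the 2 µM on-plate positive control corrector response above DMSO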
Type: cell-based
Conditions: for Emax: read-out: Maximum % activity (without co-corrector)

[1] = test compound without co-corrector, maximum at any tested concentration, normalized to on-plate positive control
[2] = test compound without co-corrector, read-out: EC50 (without co-corrector)
[3] = with co-corrector (2 μM of 3-[(2R,4R)-4-({[1-(2,2-difluoro-1,3-benzodioxol-5-yl)cyclopropyl]carbonyl}amino)-7-methoxy-3,4-dihydro-2H-chromen-2-yl]benzoic acid), maximum at any tested concentration, normalized to on-plate positive control
[4] = with co-corrector (2 μM of 3-[(2R,4R)-4-({[1-(2,2-difluoro-1,3-benzodioxol-5-yl)cyclopropyl]carbonyl}amino)-7-methoxy-3,4-dihydro-2H-chromen-2-yl]benzoic acid), read-out: EC50 (with co-corrector)
[5] = with co-corrector (2 μM), maximum at any tested concentration, normalized to on-plate positive control
[6] = without co-corrector, maximum at any tested concentration, normalized to on-plate positive control
[7] = CSE-HRP, test compound without co-corrector, read-out: EC50 (without co-corrector)
[8] = CSE-HRP, with co-corrector (2 μM of 3-[(2R,4R)-4-({[1-(2,2-difluoro-1,3-benzodioxol-5-yl)cyclopropyl]carbonyl}amino)-7-methoxy-3,4-dihydro-2H-chromen-2-yl]benzoic acid), read-out: EC50 (with co-corrector)
[9] = CSE-HRP, with co-corrector (2 μM), maximum at any tested concentration, normalized to on-plate positive control
[10] = CSE-HRP, without co-corrector, maximum at any tested concentration, normalized to on-plate positive control

T1 sequence (P13569 with tags, fused parts or gaps DEL508-508): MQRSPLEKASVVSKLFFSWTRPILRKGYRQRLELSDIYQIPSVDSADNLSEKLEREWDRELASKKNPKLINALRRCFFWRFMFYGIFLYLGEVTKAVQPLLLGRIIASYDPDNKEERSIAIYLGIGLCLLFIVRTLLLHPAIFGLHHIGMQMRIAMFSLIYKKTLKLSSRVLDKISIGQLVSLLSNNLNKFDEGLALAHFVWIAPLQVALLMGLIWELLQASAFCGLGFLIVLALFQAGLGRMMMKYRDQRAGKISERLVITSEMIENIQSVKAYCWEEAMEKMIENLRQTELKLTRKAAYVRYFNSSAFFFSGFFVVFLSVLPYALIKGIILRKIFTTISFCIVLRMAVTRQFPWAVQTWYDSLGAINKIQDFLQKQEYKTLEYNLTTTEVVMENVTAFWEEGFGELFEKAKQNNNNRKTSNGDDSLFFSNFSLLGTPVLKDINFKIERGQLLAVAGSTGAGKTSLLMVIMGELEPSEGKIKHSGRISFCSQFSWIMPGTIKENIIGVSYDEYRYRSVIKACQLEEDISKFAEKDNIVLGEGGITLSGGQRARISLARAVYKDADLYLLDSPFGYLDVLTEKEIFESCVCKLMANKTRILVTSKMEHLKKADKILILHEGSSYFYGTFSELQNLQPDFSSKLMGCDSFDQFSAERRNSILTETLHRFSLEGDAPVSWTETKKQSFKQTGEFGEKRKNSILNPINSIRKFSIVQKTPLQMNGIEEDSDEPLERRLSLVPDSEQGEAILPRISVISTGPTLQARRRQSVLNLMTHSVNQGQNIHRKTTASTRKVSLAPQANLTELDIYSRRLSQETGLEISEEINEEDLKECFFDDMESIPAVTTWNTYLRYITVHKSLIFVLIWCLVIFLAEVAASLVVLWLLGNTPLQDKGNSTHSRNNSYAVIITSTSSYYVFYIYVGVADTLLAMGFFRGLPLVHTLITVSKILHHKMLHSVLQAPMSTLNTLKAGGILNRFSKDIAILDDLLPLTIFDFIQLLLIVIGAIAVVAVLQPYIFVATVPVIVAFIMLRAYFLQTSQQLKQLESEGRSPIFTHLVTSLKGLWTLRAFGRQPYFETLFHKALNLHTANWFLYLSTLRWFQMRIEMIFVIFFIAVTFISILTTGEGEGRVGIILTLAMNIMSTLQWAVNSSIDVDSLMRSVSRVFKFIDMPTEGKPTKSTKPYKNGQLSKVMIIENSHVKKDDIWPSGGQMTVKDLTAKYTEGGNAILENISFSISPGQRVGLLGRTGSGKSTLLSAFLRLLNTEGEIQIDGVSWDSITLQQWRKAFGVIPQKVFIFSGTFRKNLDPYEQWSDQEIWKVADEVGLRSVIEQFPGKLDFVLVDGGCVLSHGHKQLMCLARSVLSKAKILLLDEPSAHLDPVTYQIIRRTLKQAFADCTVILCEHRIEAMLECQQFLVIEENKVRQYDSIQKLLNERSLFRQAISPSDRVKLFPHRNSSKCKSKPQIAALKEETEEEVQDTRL

Compound	Emax [1] [%]	pEC50 [2]	Maximum % activity (with co-corrector) [3]	pEC50 [4]	Maximum % activity (with co-corrector) [5]	Emax [6] [%]	pEC50 [7]	pEC50 [8]	Maximum % activity (with co-corrector) [9]	Emax [10] [%]	Maximum % activity (without co-corrector) [1]
COc1ccc(C(C)(C)C)cc1CN[C@H]1[C@H](C(C)(C)C)[C@@H](C(=O)O)N(C(=O)C2(C)CCc3c(Cl)cccc32)[C@H]1c1ccccc1 (some centres unmarked) [II-367]	100 to 200	5.00 to 6.00	+++ (≥350)	5.00 to 6.00	–	–	–	–	–	–	–
COc1ccc(C(C)(C)C)cc1CN[C@H]1[C@H](C(C)(C)C)[C@@H](C(=O)O)N(C(=O)[C@H]2CCC[C@H](OC)C2)[C@H]1c1ccccc1 [Example I-58]	–	5.00 to 6.00	–	5.00 to 6.00	+++ (≥350)	> 200	–	–	–	–	–
COc1ccc(OC(F)F)cc1CN[C@H]1[C@H](C(C)(C)C)[C@@H](C(=O)O)N(C(=O)C2CCCCC2)[C@H]1c1ccccc1 [II-292]	–	–	–	–	–	–	5.00 to 6.00	5.00 to 6.00	+++ (≥350)	100 to 200	–
Cc1cc(C(F)(F)F)cc(N[C@H]2[C@H](C(C)(C)C)[C@@H](C(=O)O)N(C(=O)C3C4CCCC43)[C@H]2c2cccnc2N(C)C)n1 (some centres unmarked) [Example I-222]	–	5.00 to 6.00	–	5.00 to 6.00	++ (≥150 and <350)	< 100	–	–	–	–	–
COc1ccc(OC(F)(F)F)cc1CN[C@H]1[C@H](C(C)(C)C)[C@@H](C(=O)O)N(C(=O)OC(C)C)[C@H]1c1ccccc1C(C)C [II-560]	> 200	5.00 to 6.00	+++ (≥350)	> 6.00	–	–	–	–	–	–	–
COc1ccc(S(C)(=O)=O)cc1CN[C@@H]1[C@@H](C(C)(C)C)[C@H](C(=O)O)N(C(=O)C2CCCCC2)[C@@H]1c1ccccc1 (racemic) [Example I-30]	–	< 5.00	–	< 5.00	+ (<150)	< 100	–	–	–	–	–
COc1ncc(-c2ccccc2F)cc1CN[C@H]1[C@H](C(C)(C)C)[C@@H](C(=O)O)N(C(=O)C2CCCCC2)[C@H]1c1cccnc1N(C)C [II-405]	> 200	5.00 to 6.00	+++ (≥350)	5.00 to 6.00	–	–	–	–	–	–	–
COc1ccc(C(C)(C)C)cc1CN[C@H]1[C@H](C(C)(C)C)[C@@H](C(=O)O)N(C(=O)C2CCc3cc(F)ccc3O2)[C@H]1c1cccnc1N(C)C (some centres unmarked) [II-482]	–	5.00 to 6.00	+++ (≥350)	5.00 to 6.00	–	–	–	–	–	–	++ (≥100 and <200)
COc1ccc(C(C)(C)C)cc1CN[C@H]1[C@H](C(C)(C)C)[C@@H](C(=O)O)N(C(=O)C2CCCCC2)[C@H]1c1ccccc1 [Example 7, (2S,3S,4S,5S)-3-tert-butyl-4-{[(5-tert-butyl-2-methoxyphenyl)methyl]amino}-1-(cyclohexanecarbonyl)-5-phenylpyrrolidine-2-carboxylic acid]	–	> 6.00	–	> 6.00	+++ (≥350)	> 200	–	–	–	–	–
COc1ccccc1CN[C@@H]1[C@@H](C(C)(C)C)[C@H](C(=O)O)N(C(=O)OC(C)C)[C@@H]1c1ccccc1 (racemic) [II-46]	–	–	–	–	–	–	5.00 to 6.00	5.00 to 6.00	+++ (≥350)	100 to 200	–
COc1ccc(C(C)(C)C)cc1CN[C@H]1[C@H](C(C)(C)C)[C@@H](C(=O)O)N(C(=O)c2cc(C)n(C)n2)[C@H]1c1ccccc1 [II-445]	100 to 200	5.00 to 6.00	+++ (≥350)	5.00 to 6.00	–	–	–	–	–	–	–
COc1ccc(C(F)(F)F)cc1CN[C@@H]1[C@@H](C(C)(C)C)[C@H](C(=O)O)N(C(=O)[C@@H]2CCC[C@@H](OC)C2)[C@@H]1c1ccccc1 (racemic) [II-36]	–	–	–	–	–	–	5.00 to 6.00	5.00 to 6.00	+++ (≥350)	> 200	–
COc1ccc(-c2cnn(C3CCC3)c2)cc1CN[C@H]1[C@H](C(C)(C)C)[C@@H](C(=O)O)N(C(=O)C2CCCCC2)[C@H]1c1ccccc1 [II-290]	–	–	–	–	–	–	5.00 to 6.00	5.00 to 6.00	++ (≥150 and <350)	< 100	–
COc1ccc(C(C)(C)C)cc1CN[C@H]1[C@H](C(C)(C)C)[C@@H](C(=O)O)N(C(=O)CC2CCCOC2)[C@H]1c1ccccc1 (some centres unmarked) [II-179]	–	–	–	–	–	–	5.00 to 6.00	5.00 to 6.00	+++ (≥350)	> 200	–
COc1ccc(C(C)(C)C)cc1CN[C@H]1[C@H](C(C)(C)C)[C@@H](C(=O)O)N(C(=O)[C@@H](OC)c2ccc(F)c(F)c2)[C@H]1c1ccccc1 [II-396]	100 to 200	5.00 to 6.00	+++ (≥350)	5.00 to 6.00	–	–	–	–	–	–	–
COc1ccc(C(C)(C)C)cc1CN[C@H]1[C@H](C(C)(C)C)[C@@H](C(=O)O)N(C(=O)c2ccc3c(c2)OCCCO3)[C@H]1c1ccccc1 [II-230]	–	–	–	–	–	–	5.00 to 6.00	5.00 to 6.00	+++ (≥350)	100 to 200	–
COc1ccc(Cl)cc1CN[C@H]1[C@H](C(C)(C)C)[C@@H](C(=O)O)N(C(=O)C2CCCCC2)[C@H]1c1ncccc1OC (racemic) [Example I-40]	–	< 5.00	–	< 5.00	+ (<150)	< 100	–	–	–	–	–
COc1cc(F)ccc1CN[C@H]1[C@H](C(C)(C)C)[C@@H](C(=O)O)N(C(=O)C2CCCCC2)[C@H]1c1ccccc1 [II-118]	–	–	–	–	–	–	5.00 to 6.00	5.00 to 6.00	+++ (≥350)	100 to 200	–
COc1ccc(C(C)(C)C)cc1CN[C@H]1[C@H](C2(C)CC2)[C@@H](C(=O)O)N(C(=O)C2CCCCC2)[C@H]1c1ccccc1 [II-302]	–	–	–	–	–	–	5.00 to 6.00	> 6.00	+++ (≥350)	> 200	–
COc1ccc(C(C)(C)C)cc1CN[C@H]1[C@H](C(C)(C)C)[C@@H](C(=O)O)N(C(=O)[C@@H]2C[C@H]3CC[C@@H]2O3)[C@H]1c1ccccc1C(C)C (relative stereo) [Example 74, (2S,3S,4S,5S)-3-tert-butyl-4-{[(5-tert-butyl-2-methoxyphenyl)methyl]amino}-1-[(1S*,2R*,4R*)-7-oxabicyclo[2.2.1]heptane-2-carbonyl]-5-[2-(propan-2-yl)phenyl]pyrrolidine-2-carboxylic acid]	–	5.00 to 6.00	–	> 6.00	+++ (≥350)	> 200	–	–	–	–	–
COc1ccc(C(C)(C)C)cc1CN[C@H]1[C@H](C(C)(C)C)[C@@H](C(=O)O)N(C(=O)c2cnn3ccccc23)[C@H]1c1ccccc1 [Example I-143]	–	5.00 to 6.00	–	5.00 to 6.00	+++ (≥350)	< 100	–	–	–	–	–
CC(C)c1ccccc1[C@H]1[C@@H](NCc2cccc3c2OC(C)(C)C3)[C@H](C(C)(C)C)[C@@H](C(=O)O)N1C(=O)[C@@H]1CCCO1 [Example I-305]	–	–	–	–	–	–	5.00 to 6.00	5.00 to 6.00	+++ (≥350)	100 to 200	–
CCCC1(O)CCC(C(=O)N2C(C(=O)O)C(C(C)(C)C)C(NCc3cc(C(C)(C)C)ccc3OC)C2c2ccccc2)CC1 [Example 35, (2S,3S,4S,5S)-3-tert-butyl-4-{[(5-tert-butyl-2-methoxyphenyl)methyl]amino}-1-(cis-4-hydroxy-4-propylcyclohexane-1-carbonyl)-5-phenylpyrrolidine-2-carboxylic acid]	–	5.00 to 6.00	–	> 6.00	+++ (≥350)	> 200	–	–	–	–	–
COc1ccc(C(C)(C)C)cc1CN[C@H]1[C@H](C(C)(C)C)[C@@H](C(=O)O)N(C(=O)C2CCCS(=O)(=O)C2)[C@H]1c1ccccc1 (some centres unmarked) [Example I-66]	–	5.00 to 6.00	–	5.00 to 6.00	+++ (≥350)	> 200	–	–	–	–	–
COc1ccc(C(C)(C)C)cc1N[C@H]1[C@H](C(C)(C)C)[C@@H](C(=O)O)N(C(=O)C2CCCCC2)[C@H]1c1ccccc1 [Example I-82]	–	5.00 to 6.00	–	5.00 to 6.00	+++ (≥350)	< 100	–	–	–	–	–
COc1cc(C(F)(F)F)ccc1CN[C@H]1[C@H](C(C)(C)C)[C@@H](C(=O)O)N(C(=O)[C@@H]2CCC[C@@H](OC)C2)[C@H]1c1ccccc1 [Example I-255]	–	–	–	–	–	–	5.00 to 6.00	5.00 to 6.00	+++ (≥350)	< 100	–
COc1ncc(CC2CCCCC2)cc1CN[C@H]1[C@H](C(C)(C)C)[C@@H](C(=O)O)N(C(=O)C2CCCCC2)[C@H]1c1ccccc1 [Example I-71]	–	> 6.00	–	> 6.00	+++ (≥350)	100 to 200	–	–	–	–	–
COc1ccc(C(F)(F)F)cc1CN[C@H]1[C@H](C(C)(C)C)[C@@H](C(=O)O)N(C(=O)[C@H](OC)c2ccccc2)[C@H]1c1ccccc1 [Example I-20]	–	5.00 to 6.00	–	> 6.00	+++ (≥350)	> 200	–	–	–	–	–
COc1ccc(C(F)(F)F)cc1CN[C@H]1[C@H](C(C)(C)OC)[C@@H](C(=O)O)N(C(=O)C2CCCCC2)[C@H]1c1ccccc1 [Example I-63]	–	5.00 to 6.00	–	> 6.00	+++ (≥350)	> 200	–	–	–	–	–
